16 compounds from PubChem BioAssay AID212 (DTP/NCI, 2004) can be followed below.

Where “and” joins values, the source holds several entries; their conditions need not be identical. Equal values may be shown once. Inconclusive results are not listed.

In the experiment the test system is BDF1 mice, colon carcinoma 38 sc, T/C %. Kind of experiment: NCI In Vivo Anticancer Drug Screen. Data for tumor model Colon Carcinoma 38 (subcutaneous) in B6D2F1 (BDF1) mice. An outline of the steps: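 Mice with transplanted tumors are treated with compound or vehicle. Survival or tumor size is then measured in both groups. The ratio of treated to control gives the reported figure.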

Setting [1] is: endpoint: median tumor weight (est.), dose: 50.0 mg/kg/injection, schedule: Q07DX003 (ip), vehicle: saline, higher = larger tumour.
Setting [2] is: endpoint: median tumor weight (est.), dose: 100.0 mg/kg/injection, schedule: Q07DX003 (ip), vehicle: saline, higher = larger tumour.
The mark [3] stands for this setting: endpoint: median tumor weight (est.), dose: 200.0 mg/kg/injection, schedule: Q07DX003 (ip), vehicle: saline, higher = larger tumour.
Setting [4] is: endpoint: median tumor weight (est.), dose: 400.0 mg/kg/injection, schedule: Q07DX003 (ip), vehicle: saline, higher = larger tumour.
Where [5] appears, read: endpoint: median tumor weight (est.), dose: 25.0 mg/kg/injection, schedule: Q07DX002 (ip), vehicle: Klucel (hydroxypropylcellulose) (HPC), higher = larger tumour.
[6] abbreviates: endpoint: median tumor weight (est.), dose: 50.0 mg/kg/injection, schedule: Q07DX002 (ip), vehicle: Klucel (hydroxypropylcellulose) (HPC), higher = larger tumour.
The mark [7] stands for this setting: endpoint: median tumor weight (est.), dose: 100.0 mg/kg/injection, schedule: Q07DX002 (ip), vehicle: Klucel (hydroxypropylcellulose) (HPC), higher = larger tumour.

With `CNNCc1ccc(C(=O)NC(C)C)cc1`, the T/C reads like this: under setting [1], 110 % of control; under setting [2], 123 % of control; under setting [3], 99 % of control; under setting [4], 35 % of control.
Take `CN(C)C(=O)c1cccc(COc2ccc(N3C(N)=NC(N)=NC3(C)C)cc2Cl)c1`: the T/C (endpoint: median tumor weight (est.), dose: 32.0 mg/kg/injection, schedule: Q07DX003 (ip), vehicle: saline, higher = larger tumour) was 87 % of control and 98 % of control; the T/C (endpoint: median tumor weight (est.), dose: 64.0 mg/kg/injection, schedule: Q07DX003 (ip), vehicle: saline, higher = larger tumour) is 50 % of control; the T/C (endpoint: median tumor weight (est.), dose: 128.0 mg/kg/injection, schedule: Q07DX003 (ip), vehicle: saline, higher = larger tumour) was 66 % of control; the T/C (endpoint: median tumor weight (est.), dose: 256.0 mg/kg/injection, schedule: Q07DX003 (ip), vehicle: saline, higher = larger tumour) was 59 % of control.
Regarding `CNc1nc(N(C)C)nc(N(C)C)n1`, the T/C by setting is: (endpoint: median tumor weight (est.), dose: 3.12 mg/kg/injection, schedule: Q07DX003 (ip), vehicle: saline, higher = larger tumour) 114 % of control; (endpoint: median tumor weight (est.), dose: 6.25 mg/kg/injection, schedule: Q07DX003 (ip), vehicle: saline, higher = larger tumour) 95 % of control; (endpoint: median tumor weight (est.), dose: 6.25 mg/kg/injection, schedule: Q07DX003 (ip), vehicle: water, higher = larger tumour) 89 % of control; (endpoint: median tumor weight (est.), dose: 12.5 mg/kg/injection, schedule: Q07DX003 (ip), vehicle: saline, higher = larger tumour) 121 % of control; (endpoint: median tumor weight (est.), dose: 12.5 mg/kg/injection, schedule: Q07DX003 (ip), vehicle: water, higher = larger tumour) 104 % of control; (endpoint: median tumor weight (est.), dose: 25.0 mg/kg/injection, schedule: Q07DX003 (ip), vehicle: saline, higher = larger tumour) 121 % of control. Besides, the T/C was 61 % of control (endpoint: median tumor weight (est.), dose: 25.0 mg/kg/injection, schedule: Q07DX003 (ip), vehicle: water, higher = larger tumour); 114 % of control under setting [1]; 158 % of control (endpoint: median tumor weight (est.), dose: 50.0 mg/kg/injection, schedule: Q07DX003 (ip), vehicle: water, higher = larger tumour); 108 % of control (endpoint: median tumor weight (est.), dose: 100.0 mg/kg/injection, schedule: Q07DX003 (ip), vehicle: water, higher = larger tumour); 32 % of control under setting [3]; 22 % of control (endpoint: median tumor weight (est.), dose: 200.0 mg/kg/injection, schedule: Q07DX003 (ip), vehicle: water, higher = larger tumour).
On to `CCCCCCCC(=O)N/N=C(\CO)[C@]1(O)Cc2c(O)c3c(c(O)c2[C@@H](OC2CC(N)C(O)C(C)O2)C1)C(=O)c1c(OC)cccc1C3=O` (stereo partly specified), for which the T/C (endpoint: median survival time, dose: 30.0 mg/kg/injection, schedule: Q07DX002 (sc), vehicle: saline, higher = longer survival) was 100 % of control; the T/C (endpoint: median survival time, dose: 48.0 mg/kg/injection, schedule: Q07DX002 (sc), vehicle: saline, higher = longer survival) was 75 % of control; the T/C (endpoint: median survival time, dose: 126.0 mg/kg/injection, schedule: Q07DX002 (sc), vehicle: saline, higher = longer survival) was 105 % of control; the T/C (endpoint: median tumor weight (est.), dose: 6.75 mg/kg/injection, schedule: Q07DX002 (ip), vehicle: distilled water + Tween-80, higher = larger tumour) was 84 % of control; the T/C (endpoint: median tumor weight (est.), dose: 6.75 mg/kg/injection, schedule: Q07DX002 (ip), vehicle: suspension in saline, higher = larger tumour) was 97 % of control; the T/C (endpoint: median tumor weight (est.), dose: 13.5 mg/kg/injection, schedule: Q07DX002 (ip), vehicle: suspension in saline, higher = larger tumour) is 73 % of control. Also, the T/C by setting is: (endpoint: median tumor weight (est.), dose: 27.0 mg/kg/injection, schedule: Q07DX002 (ip), vehicle: suspension in saline, higher = larger tumour) 101 % of control; (endpoint: median tumor weight (est.), dose: 54.0 mg/kg/injection, schedule: Q07DX002 (ip), vehicle: distilled water + Tween-80, higher = larger tumour) 18 % of control and 41 % of control; (endpoint: median tumor weight (est.), dose: 54.0 mg/kg/injection, schedule: Q07DX002 (ip), vehicle: suspension in saline, higher = larger tumour) 58 % of control.
`CC(=O)c1cccc(NC2C(N)C(NC(=O)N(C)C)(C(C)O)C(C)(O)C2(O)COC(=O)c2c(C)cccc2O)c1` (stereo unspecified): the T/C is, setting by setting: (endpoint: median tumor weight (est.), dose: 1.0 mg/kg/injection, schedule: Q07DX002 (ip), vehicle: suspension in saline, higher = larger tumour) 110 % of control; (endpoint: median tumor weight (est.), dose: 2.0 mg/kg/injection, schedule: Q07DX002 (ip), vehicle: suspension in saline, higher = larger tumour) 152 % of control; (endpoint: median tumor weight (est.), dose: 4.0 mg/kg/injection, schedule: Q07DX002 (ip), vehicle: suspension in saline, higher = larger tumour) 104 % of control; (endpoint: median tumor weight (est.), dose: 8.0 mg/kg/injection, schedule: Q07DX002 (ip), vehicle: suspension in saline, higher = larger tumour) 71 % of control.
Consider `Cc1ccc(C(=O)[O][Hg][CH2]C2COC([CH2][Hg][O]C(=O)c3ccc(C)cc3)CO2)cc1` (stereo unspecified), for which the T/C is 186 % of control under setting [5]; 177 % of control and 193 % of control under setting [6]; 154 % of control and 209 % of control under setting [7].
As to `CCCCCCCCCCCCSC1=C(Cl)C(=O)C(OC)=C(OC)C1=O`, the T/C by setting is: (endpoint: median tumor weight (est.), dose: 25.0 mg/kg/injection, schedule: Q07DX002 (ip), vehicle: saline with Tween-80, higher = larger tumour) 110 % of control and 97 % of control; (endpoint: median tumor weight (est.), dose: 50.0 mg/kg/injection, schedule: Q07DX002 (ip), vehicle: saline with Tween-80, higher = larger tumour) 91 % of control and 96 % of control; (endpoint: median tumor weight (est.), dose: 200.0 mg/kg/injection, schedule: Q07DX002 (ip), vehicle: saline with Tween-80, higher = larger tumour) 104 % of control.
Take `CS(C)=O`: the T/C (endpoint: median tumor weight (est.), dose: 1.5 grams/kg/injection, schedule: Q07DX003 (ip), vehicle: saline, higher = larger tumour) is 86 % of control; the T/C (endpoint: median tumor weight (est.), dose: 6.0 grams/kg/injection, schedule: Q07DX003 (ip), vehicle: saline, higher = larger tumour) is 83 % of control and 103 % of control; the T/C (endpoint: median tumor weight (est.), dose: 12.0 grams/kg/injection, schedule: Q07DX003 (ip), vehicle: saline, higher = larger tumour) is 171 % of control.
Take `Cc1ncc([N+](=O)[O-])n1CCSC(N)=O`: the T/C is 111 % of control (endpoint: median tumor weight (est.), dose: 12.5 mg/kg/injection, schedule: Q07DX003 (ip), vehicle: saline with Tween-80, higher = larger tumour); 164 % of control (endpoint: median tumor weight (est.), dose: 25.0 mg/kg/injection, schedule: Q07DX003 (ip), vehicle: saline with Tween-80, higher = larger tumour); 108 % of control (endpoint: median tumor weight (est.), dose: 100.0 mg/kg/injection, schedule: Q07DX003 (ip), vehicle: saline with Tween-80, higher = larger tumour).
Turning to `O=c1[nH]cnc2n[nH]nc12`, the T/C (endpoint: median tumor weight (est.), dose: 12.5 mg/kg/injection, schedule: Q07DX002 (ip), vehicle: Klucel (hydroxypropylcellulose) (HPC), higher = larger tumour) is 122 % of control; the T/C under setting [5] is 110 % of control; the T/C under setting [6] was 100 % of control; the T/C under setting [7] is 87 % of control; the T/C (endpoint: median tumor weight (est.), dose: 200.0 mg/kg/injection, schedule: Q07DX002 (ip), vehicle: Klucel (hydroxypropylcellulose) (HPC), higher = larger tumour) is 77 % of control; the T/C (endpoint: median tumor weight (est.), dose: 400.0 mg/kg/injection, schedule: Q07DX002 (ip), vehicle: Klucel (hydroxypropylcellulose) (HPC), higher = larger tumour) is 88 % of control.
Regarding `CCNC(=O)OCc1c(COC(=O)NCC)c(-c2ccc(Cl)c(Cl)c2)n2c1CCC2`, the T/C runs as follows: (endpoint: median tumor weight (est.), dose: 3.12 mg/kg/injection, schedule: Q07DX002 (ip), vehicle: saline, higher = larger tumour) 74 % of control; (endpoint: median tumor weight (est.), dose: 6.25 mg/kg/injection, schedule: Q07DX002 (ip), vehicle: saline, higher = larger tumour) 104 % of control; (endpoint: median tumor weight (est.), dose: 12.5 mg/kg/injection, schedule: Q07DX002 (ip), vehicle: saline, higher = larger tumour) 86 % of control; (endpoint: median tumor weight (est.), dose: 25.0 mg/kg/injection, schedule: Q07DX002 (ip), vehicle: saline, higher = larger tumour) 62 % of control; (endpoint: median tumor weight (est.), dose: 50.0 mg/kg/injection, schedule: Q07DX002 (ip), vehicle: saline, higher = larger tumour) 42 % of control.
For `Cn1cnc([N+](=O)[O-])c1S(=O)(=O)NCN1CCOCC1`, the T/C under setting [7] was 102 % of control and 104 % of control.
Regarding `CN(C)N=Nc1cn[nH]c1C(N)=O`, the T/C (endpoint: median tumor weight (est.), dose: 6.25 mg/kg/injection, schedule: Q07DX002 (ip), vehicle: Klucel (hydroxypropylcellulose) (HPC), higher = larger tumour) is 102 % of control.
Consider `Cc1cc2c(C(C)C)c(O)c(O)c(C=O)c2c(O)c1-c1c(C)cc2c(C(C)C)c(O)c(O)c(C=O)c2c1O`, for which the T/C was 117 % of control (endpoint: median tumor weight (est.), dose: 1.5 mg/kg/injection, schedule: Q07DX002 (ip), vehicle: saline with Tween-80, higher = larger tumour); 97 % of control (endpoint: median tumor weight (est.), dose: 3.0 mg/kg/injection, schedule: Q07DX002 (ip), vehicle: saline with Tween-80, higher = larger tumour); 107 % of control (endpoint: median tumor weight (est.), dose: 6.0 mg/kg/injection, schedule: Q07DX002 (ip), vehicle: saline with Tween-80, higher = larger tumour); 53 % of control (endpoint: median tumor weight (est.), dose: 12.0 mg/kg/injection, schedule: Q07DX002 (ip), vehicle: saline with Tween-80, higher = larger tumour); 96 % of control (endpoint: median tumor weight (est.), dose: 24.0 mg/kg/injection, schedule: Q07DX002 (ip), vehicle: saline with Tween-80, higher = larger tumour).
Consider `CC1=C2CC(C)(C)/C=C\C(=O)/C(C)=C\C3=C[C@H](C)C[C@]3(O2)C1=O`, for which the T/C (endpoint: median tumor weight (est.), dose: 1.5 mg/kg/injection, schedule: Q07DX002 (ip), vehicle: Klucel (hydroxypropylcellulose) (HPC), higher = larger tumour) is 80 % of control; the T/C (endpoint: median tumor weight (est.), dose: 3.0 mg/kg/injection, schedule: Q07DX002 (ip), vehicle: Klucel (hydroxypropylcellulose) (HPC), higher = larger tumour) was 100 % of control; the T/C (endpoint: median tumor weight (est.), dose: 6.0 mg/kg/injection, schedule: Q07DX002 (ip), vehicle: Klucel (hydroxypropylcellulose) (HPC), higher = larger tumour) is 157 % of control.
For the compound `CN1c2c(nc(N)[nH]c2=O)NCC1CCNc1ccc(C(=O)NC(CCC(=O)O)C(=O)O)cc1` (stereo unspecified), the T/C under setting [1] was 155 % of control; the T/C under setting [2] was 64 % of control; the T/C under setting [3] is 99 % of control; the T/C under setting [4] was 98 % of control; the T/C (endpoint: median tumor weight (est.), dose: 800.0 mg/kg/injection, schedule: Q07DX003 (ip), vehicle: saline, higher = larger tumour) was 92 % of control.
